Test results: article PMC7932555, “A diffusible signal factor of the intestine dictates Salmonella invasion through its direct control of the virulence activator HilD” (PLoS Pathogens, 2021)

System: sipB::lacZY
Assay: sipB::lacZY reporter β-galactosidase assay in strains expressing wild type or mutant HilD
Format: cell-based
Details: 20 μM fatty acid (mix: 20 μM of each)
From the text: To test the effect of mutations in hilD, we initially constructed a background Salmonella strain without chromosomal hilC, rtsA and hilD and fused sipB to lacZY to assess SPI-1 expression. hilD with a C-terminal 3XFLAG tag was cloned into pWSK29 under control of the tetRA promoter for tetracycline-inducible expression. This plasmid was subjected to site-directed mutagenesis at specific nucleotides to change selected amino acids to alanine, using the Agilent QuikChange II Site-Directed Mutagenesis kit following their protocol. Mutations were confirmed by DNA sequencing.
Salmonella strains were inoculated into LB buffered with 100 mM MOPS [3-(N-morpholino) propanesulphonic acid] pH 6.7, with necessary antibiotics, and fatty acids or control solvents to be tested. Cultures were incubated at 37° C without aeration overnight, and assays were performed using an established protocol.

[1] = strain expressing wild type HilD

Row | Compound | repression of sipB expression (strain expressing HilD K293A) | repression of sipB expression (strain expressing HilD K294A) | repression of sipB expression [1] | repression of sipB expression (strain expressing HilD K43A) | repression of sipB expression (strain expressing HilD Q290A)
1 | CCCCCCCCC/C=C\C(=O)O [c2-DDA, cis-2-dodecenoic acid] | no significant reduction | no significant reduction | 4.1 fold | – | –
2 | CCCCCCCCCCC/C=C\CCCCCCC(=O)O [c8-EA, cis-8-eicosenoic acid] | continued to repress sipB expression | continued to repress sipB expression | – | – | –
3 | CCCCCCCC/C=C\CCCCCCCC(=O)O [oleic acid, cis-9-octadecenoic acid] | continued to repress sipB expression | continued to repress sipB expression | 3.7 fold | no longer had a repressive effect | no longer had a repressive effect
